Measurements published in patent US8921405B2, “Compounds” (Orexo AB, priority 2009, dated 2014).

Each compound was assayed against T1, recombinant human mPGES-1 (Homo sapiens, UniProt O14684) (assay: mPGES-1 HTRF assay (inhibition of PGE2 formation from PGH2)). Settings: HTRF assay.
T1 construct: made in house; host or cells: Rosetta E. coli (membrane/microsome fraction)
T1 sequence (O14684 1-152): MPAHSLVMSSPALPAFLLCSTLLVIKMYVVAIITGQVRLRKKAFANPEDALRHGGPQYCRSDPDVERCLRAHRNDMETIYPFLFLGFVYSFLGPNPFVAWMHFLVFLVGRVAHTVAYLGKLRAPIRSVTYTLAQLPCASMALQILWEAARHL
Format: biochemical
Procedure: The basis of the assay used is to measure the inhibition of microsomal prostaglandin E2 synthase-1 (mPGES-1) dependent prostaglandin (PG) E2 formation from PGH2 by different compounds. Thus, the formation of PGE2 is used as signal and a lowering of this signal can be interpreted as inhibition of mPGES-1. […] Microsomes from Rosetta E. coli bacteria expressing recombinant human mPGES-1 can be derived as described below: Inoculate 5 ml LB with Amp and Chloro with bacteria from freeze culture. Incubate over night at 37° C. with 200 rpm. Thereafter, inoculate 500-800 ml LB containing Amp and Chloro with the 5 ml on culture and grow to OD640 of 0.6-0.8. Chill the culture to +4° C. before induction. Induce the culture with IPTG at a final concentration of 400 μM. Express the protein at room temp 18-23° C. with 200 rpm shaking over night. The following steps can be performed on the following day: • 1. Spin down the cells in 250 ml centrifuge flasks for 15 min at 7000 rpm • 2. Dissolve the pellet from 250 ml culture in 12.5 ml homogenization buffer • 3. Disintegrate the cells by sonication, 4×10 seconds at 35% amplitude • 4. Add 2.5 ml MgCl2 (100 mM) and DNase 12.5 μl (0.8 mg/ml) and incubate on ice for 30 min • 5. Spin down the bacteria debris and save the supernatant, 7000 rpm for 15 min • 6. Isolate the protein containing membranes in the supernatant by ultracentrifugation 45000×g for 1 hour. • 7. Discard the supernatant and dissolve the pellet in 20 mM KPi buffer and aliquot the enzyme and store aliquots at −80° C. Before each experiment is performed an aliquot of the enzyme is thawed and it can then be dissolved in 0.1 M KPi pH 7.4 buffer containing 2.5 mM GSH. 50 μl of this enzyme solution is subsequently dispensed in a 384-well plate at room temperature. 0.5 μl of the inhibitor dissolved in DMSO is thereafter added to each well and incubated for 25 minutes at room temperature. Subsequently, 2 μl of PGH2 dissolved in an appropriate solvent is added to each well and after one minute at room temperature, the acidified stop solution containing FeCl2 is added. 4 μl of the total volume is transferred to a separate plate and diluted 750-fold in two separate steps before quantification of PGE2. In order to quantitate the amount of PGE2 that has been formed, a homogenous time resolved fluorescent (HTRF) detection of PGE2 can be performed by the use of a commercially available kit from CisBio essentially according to the manufacturer's protocol. […] The sealing film is thereafter removed from the NC wells. • 5 μl Eu3+-cryptate labeled anti-PGE2 can now be added to rows 1 to 24 by using a Multidrop. • The plate can now be covered with sealing film. • The plate can now be centrifuge at 1200 rpm for 1 minute and place at 4° C. overnight. After the over night incubation the fluorescence is measured by the use of an appropriate microplate reader. […] The extent of the specific HTRF is measured as a ratio of the emission intensity at 665 nm vs. that at 620 nm. A standard curve using synthetic PGE2 is used to quantify the amount of PGE2 in unknown samples. The degree of inhibition can be calculated as percent inhibition by dividing the amount of PGE2 formed in unknown samples by the amount of PGE2 formed in control samples.

IC50	Structure (SMILES)
1 nM	Cn1c(Nc2cc(CNC(=O)C(C)(C)C)ccc2Cl)nc2cc(C(=O)Nc3ccc(Br)cc3)ccc21 [Example 57, N-(4-Bromophenyl)-2-{2-chloro-5-[(tert.butylcarbonylamino)methyl]-phenylamino}-1-methylbenzimidazole-5-carboxamide]
2 nM	Cn1c(Nc2cc(CNC(=O)C3(C(F)(F)F)CC3)ccc2Cl)nc2cc(C(=O)Nc3ccc(Br)cc3)c(OCC(F)F)cc21 [Example 59, N-(4-Bromo-phenyl)-2-(2-chloro-5-{[(1-trifluoromethyl-cyclopropanecarbonyl)-amino]-methyl}-phenylamino)-6-(2,2-difluoro-ethoxy)-1-methyl-1H-benzimidazole-5-carboxylic acid amide]
1 nM	Cn1c(Nc2cc(CNC(=O)C3(C(F)(F)F)CC3)ccc2Cl)nc2cc(C(=O)NCC3CC3)c(OCC(F)F)cc21 [Example 60, N-(Cyclopropylmethyl)-2-(2-chloro-5-{[(1-trifluoromethyl-cyclopropanecarbonyl)-amino]-methyl}-phenylamino)-6-(2,2-difluoro-ethoxy)-1-methyl-1H-benzimidazole-5-carboxylic acid amide]
1 nM	Cn1c(Nc2cc(CNC(=O)C3(C(F)(F)F)CC3)ccc2Cl)nc2cc(C(=O)NCCCC(F)(F)F)c(OCC(F)F)cc21 [Example 61, N-(4,4,4-Trifluorobutyl)-2-(2-chloro-5-{[(1-trifluoromethyl-cyclopropanecarbonyl)-amino]-methyl}-phenylamino)-6-(2,2-difluoro-ethoxy)-1-methyl-1H-benzimidazole-5-carboxylic acid amide]
1 nM	Cn1c(Nc2cc(CNC(=O)C3(C(F)(F)F)CC3)ccc2Cl)nc2cc(C(=O)NC3CCC(F)(F)CC3)c(OCC(F)F)cc21 [Example 62, N-(4,4-Difluorocyclohexyl)-2-(2-chloro-5-{[(1-trifluoromethyl-cyclopropanecarbonyl)-amino]-methyl}-phenylamino)-6-(2,2-difluoro-ethoxy)-1-methyl-1H-benzimidazole-5-carboxylic acid amide]
2 nM	COc1cc2c(cc1C(=O)Nc1ccc(Br)cc1)nc(Nc1cc(CNC(=O)C3(C(F)(F)F)CC3)ccc1Cl)n2C [Example 63, N-(4-Bromo-phenyl)-2-(2-chloro-5-{[(1-trifluoromethyl-cyclopropanecarbonyl)-amino]-methyl}-phenylamino)-6-methoxy-1-methyl-1H-benzimidazole-5-carboxylic acid amide]
2 nM	COc1cc2c(cc1C(=O)NCC1CC1)nc(Nc1cc(CNC(=O)C3(C(F)(F)F)CC3)ccc1Cl)n2C [Example 64, N-(Cyclopropylmethyl)-2-(2-chloro-5-{[(1-trifluoromethyl-cyclopropanecarbonyl)-amino]-methyl}-phenylamino)-6-methoxy-1-methyl-1H-benzimidazole-5-carboxylic acid amide]
300 nM	COc1cc2c(cc1C(N)=O)nc(Nc1cc(CNC(=O)C3(C(F)(F)F)CC3)ccc1Cl)n2C [Example 65, 2-(2-chloro-5-{[(1-trifluoromethyl-cyclopropanecarbonyl)-amino]-methyl}-phenylamino)-6-methoxy-1-methyl-1H-benzimidazole-5-carboxylic acid amide]
3 nM	Cn1c(Nc2cc(CNC(=O)C3(C(F)(F)F)CC3)ccc2F)nc2cc(C(=O)Nc3ccc(Br)cc3)c(OCC(F)F)cc21 [Example 66, N-(4-Bromo-phenyl)-2-(2-fluoro-5-{[(1-trifluoromethyl-cyclopropanecarbonyl)-amino]-methyl}-phenylamino)-6-(2,2-difluoro-ethoxy)-1-methyl-1H-benzimidazole-5-carboxylic acid amide]
2 nM	O=C(Nc1ccc(Br)cc1)c1cc2nc(Nc3cc(CNC(=O)C4(C(F)(F)F)CC4)ccc3Cl)[nH]c2cc1OCC(F)F [Example 67, N-(4-Bromo-phenyl)-2-(2-chloro-5-{[(1-trifluoromethyl-cyclopropanecarbonyl)-amino]-methyl}-phenylamino)-6-(2,2-difluoro-ethoxy)-1H-benzimidazole-5-carboxylic acid amide]
3 nM	O=C(NCC1CC1)c1cc2nc(Nc3cc(CNC(=O)C4(C(F)(F)F)CC4)ccc3Cl)[nH]c2cc1OCC(F)F [Example 68, N-(Cyclopropylmethyl)-2-(2-chloro-5-[{(l-trifluoromethyl-cyclopropanecarbonyl)-amino]-methyl}-phenylamino)-6-(2,2-difluoro-ethoxy)-1H-benzimidazole-5-carboxylic acid amide]
1 nM	COc1cc2[nH]c(Nc3cc(CNC(=O)C4(C(F)(F)F)CC4)ccc3Cl)nc2cc1C(=O)Nc1ccc(Br)cc1 [Example 69, N-(4-Bromo-phenyl)-2-(2-chloro-5-{[(1-trifluoromethyl-cyclopropanecarbonyl)-amino]-methyl}-phenylamino)-6-methoxy-1H-benzimidazole-5-carboxylic acid amide]
3 nM	CN(C)CCn1c(Nc2cc(CNC(=O)C3(C(F)(F)F)CC3)ccc2Cl)nc2cc(C(=O)Nc3ccc(Br)cc3)ccc21 [Example 70, N-(4-Bromo-phenyl)-2-(2-chloro-5-{[(1-trifluoromethyl-cyclopropanecarbonyl)-amino]-methyl}-phenylamino)-1-(2-(dimethylamino)ethyl)-1H-benzimidazole-5-carboxylic acid amide]
2 nM	COCCn1c(Nc2cc(CNC(=O)C3(C(F)(F)F)CC3)ccc2Cl)nc2cc(C(=O)Nc3ccc(Br)cc3)ccc21 [Example 71, N-(4-Bromo-phenyl)-2-(2-chloro-5-{[(1-trifluoromethyl-cyclopropanecarbonyl)-amino]-methyl}-phenylamino)-1-(2-methoxyethyl)-1H-benzimidazole-5-carboxylic acid amide]

Same assay, conditions: compound concentration of 10 μM, HTRF assay; read-out: % inhibition

inhibition at 10 µM	Structure (SMILES)
94%	Cn1c(Nc2cc(CNC(=O)C3(C)CCC(F)(F)CC3)ccc2Cl)nc2cc(C(=O)Nc3ccc(Br)cc3)ccc21 [Example 51, N-(4-Bromophenyl)-2-{2-chloro-5-[(4,4-difluoro-1-methylcyclohexyl-amido)methyl]phenylamino}-1-methylbenzimidazole-5-carboxamide]
100%	Cn1c(Nc2cc(CNC(=O)C3(C(F)(F)F)CC3)ccc2Cl)nc2cc(C(=O)NCCCC(F)(F)F)ccc21 [Example 53, 2-{2-Chloro-5-[(1-trifluoromethylcyclopropylamido)methyl]phenylamino}-1-methyl-N-(4,4,4-trifluorobutyl)benzimidazole-5-carboxamide]
98%	Cn1c(Nc2cc(CNC(=O)C3(C(F)(F)F)CC3)ccc2Cl)nc2cc(C(=O)NC3CCC(F)(F)CC3)ccc21 [Example 54, 2-{2-chloro-5-[(1-trifluoromethylcyclopropylamido)methyl]phenylamino}-N-(4,4-difluorocyclohexyl)-1-methylbenzimidazole-5-carboxamide]
68%	CN1CCCC1CCNC(=O)c1ccc2c(c1)nc(Nc1cc(CNC(=O)C3(C(F)(F)F)CC3)ccc1Cl)n2C (stereo not shown) [Example 55, 2-{2-chloro-5-[(1-trifluoromethylcyclopropylamido)methyl]phenylamino}-1-methyl-N-[2-(1-methyl-2-pyrrolidinyl)ethyl]benzimidazole-5-carboxamide]

Structure (SMILES)	inhibition at 10 µM
Cn1c(Nc2cc(CNC(=O)C3(C(F)(F)F)CC3)ccc2Cl)nc2cc(C(=O)NCCOC(C)(C)C)ccc21 [Example 52, N-(2-tert-Butoxyethyl)-2-{2-chloro-5-[(1-trifluoromethylcyclopropyl-amido)methyl]phenylamino}-1-methylbenzimidazole-5-carboxamide]	96%
